Assay [1] deals with recombinant human ICAM-1/VCAM-1. Briefly: Flow chamber: Jurkat E6.1 T cell-rolling on recombinant ICAM-1/VCAM-1, semi short-term conditions. The assay is classed as cell-based. Conditions: Jurkat E6.1 T cells, +AMG 103 10 ng/ml, t=45 min; coated at 12.5 and 10 μg/ml; control −AMG 103 640±91. On the procedure: Recombinant proteins (rhICAM-1 #ADP4-050, rhVCAM-1 #ADP5-050 or rhP-selectin #ADP3-050, R&D Systems) were dissolved in ddH2O according to the manufacturer's instructions. Prior to rolling experiments recombinant proteins were diluted in Dulbecco's PBS with Ca^2+ and Mg^2+ (#L1815, Biochrom) and coated onto a μ-slide VI^0.4 Luer ibiTreat (#80606, ibidi) over night at 4° C. Before usage slides were washed three times with Dulbecco's PBS and blocked where indicated with 20% FBS (#10270, Gibco) in PBS for 2 h at room temperature. Blocking solution was replaced by RPMI 1640 medium (#FG1215, Biochrom) without supplements. […]
For rolling experiments using Jurkat E6.1 T cells, these cells were resuspended in RPMI 1640 medium (#FG1215, Biochrom) without supplements to a final concentration of 1.5-3×10^5 cells/ml. […] Image sequences of 45 sec duration were recorded at t=40 min, 45 min, and 50 min as described in Example 2 (p. 50, 18-23).
Experiments under defined hydrodynamic flow conditions were performed by using either freshly isolated human T cells or Jurkat E6.1 T cells and μ-slide VI^0.4 Luer ibiTreat (#80606, ibidi) coated with different recombinant proteins as described above. […] T cell-interactions with recombinant proteins were recorded as described above and data was analyzed as described in detail in Example 2 (p. 50, 23-30). […]

For a further assay, the system named is recombinant human VCAM-1. Briefly: Flow chamber: T cell-rolling on recombinant VCAM-1, semi short-term conditions. The format is cell-based. The conditions noted are these: freshly isolated T cells. As to the method:
(§1) Recombinant proteins (rhICAM-1 #ADP4-050, rhVCAM-1 #ADP5-050 or rhP-selectin #ADP3-050, R&D Systems) were dissolved in ddH2O according to the manufacturer's instructions. Prior to rolling experiments recombinant proteins were diluted in Dulbecco's PBS with Ca^2+ and Mg^2+ (#L1815, Biochrom) and coated onto a μ-slide VI^0.4 Luer ibiTreat (#80606, ibidi) over night at 4° C. Before usage slides were washed three times with Dulbecco's PBS and blocked where indicated with 20% FBS (#10270, Gibco) in PBS for 2 h at room temperature. Blocking solution was replaced by RPMI 1640 medium (#FG1215, Biochrom) without supplements.
(§2) Isolation and characterization of human peripheral blood mononuclear cells (PBMC) and T cells from blood were performed as described in Example 2 (p. 48, 1-31).
(§3) For rolling experiments using freshly isolated T cells, these cells were resuspended in RPMI 1640 medium (#FG1215, Biochrom) without supplements to a final concentration of 1×10^6 cells/ml at the start of the experiment (t=0 min; addition of 10 ng/ml Blinatumomab (AMG 103)) and incubated for 35 min at 37° C. and 5% CO2. Cells were then filled in a perfusion set “white” (#10963, ibidi) which was connected to both a fluidic unit and the μ-slide and image sequences of 45 sec duration were recorded at t=40 min, 45 min, and 50 min as described in Example 2 (p. 50, 18-23). […]

For assay [2], the system named is ICAM-1, P-selectin and VCAM-1 on HBMEC. Briefly: Immunofluorescence staining of HBMEC after T cell-rolling. The format is cell-based, human. On the procedure: After rolling and adhesion of T cells on HBMEC or HUVEC under flow conditions, endothelial cells were fixed using 150 μl of 4% paraformaldehyde solution (#P-6148, Sigma-Aldrich) for 30 min at 4° C. μ-slides were rinsed with 150 μl of D-PBS and subjected to immunofluorescence staining. HBMEC were first blocked with 150 μl of avidin blocking reagent (#PHA-70871, reagent 1, Dianova) for 10 min at room temperature, washed with 150 μl of D-PBS followed by incubation with 150 μl of biotin blocking reagent (#PHA-70871, reagent 2, Dianova). All following staining procedures were performed in 150 μl of D-PBS with 5% FBS at room temperature in the dark, and washing steps were done in 150 μl of D-PBS. μ-slides were incubated with 5 μg/ml polyclonal rabbit anti-human VCAM-1 (#106777, abcam) for 1 h. After washing, 20 μg/ml goat anti-rabbit IgG-DyLight350 was added for 1 h followed by washing and incubation with 15 μg/ml mouse anti-human P-selectin IgG1 (#BBA30, R&D Systems) for 2 h. After washing, goat anti-mouse IgG-Alexa488 (1:100) (#A10680, Invitrogen) was added for 1 h. […] VCAM-1 staining was monitored with a CFL EPI-FL Filter Block UV-2A (#MBE41200, Nikon), P-selectin staining with a CFL EPI-FL Filter Block GFP-B (#MBE44740, Nikon), and ICAM-1 staining with an EPI-FL Filter Block Cy3 (#MXU96213, Nikon). […]

In the next assay the test system is recombinant human ICAM-1. Briefly: Flow chamber: T cell-rolling on recombinant ICAM-1, semi short-term conditions. The format is cell-based. Conditions: freshly isolated T cells, +AMG 103 10 ng/ml, t=45 min; coated at 12.5 μg/ml, with blocking; control −AMG 103 383±144. As to the method:
as §1, §2, §3

Turning to “Blinatumomab: recombinant CD19×CD3 bispecific scFv antibody consisting of four immunoglobulin variable domains assembled into a single polypeptide chain”, the “mean T cell-rolling velocity±SD” value amounted to 518±98 μm/sec in assay [1]; 205±45 μm/sec in the assay on recombinant human VCAM-1 (+AMG 103 10 ng/ml with vehicle DMSO, t=40 min, coated at 20 μg/ml, control −AMG 103 259±35); 353±72 μm/sec with recombinant human VCAM-1 (+AMG 103 10 ng/ml, t=45 min, coated at 10 μg/ml, with blocking, control −AMG 103 418±136); 314±79 μm/sec in the assay with recombinant human ICAM-1. Also, the “surface expression of adhesion molecules on HBMEC” value in assay [2] (after T cell-rolling with Blinatumomab-stimulated T cells, 120 min) is “increased surface expression of adhesion molecules ICAM-1, P-selectin and VCAM-1”. Besides, the “cell surface expression of P-selectin on HBMEC” value in assay [2] (histamine-stimulated HBMEC, Blinatumomab added, no PPS) was “increased”.

For the origin of these results see patent publication US9688760B2, “Anti-leukocyte adhesion for the mitigation of potential adverse events caused by CD3-specific binding domains” (AMGEN RESEARCH (MUNICH) GMBH, priority 2013, dated 2017).
